Results taken from PubChem BioAssay (NCI).
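48-hour exposure; five concentrations; linearly interpolated endpoints. TGI is the concentration that stops growth completely.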

Experiments:
Assay in all cases: growth of human tumour cells (NCI), 48 h
SF-268 CNS = test system: SF-268 CNS
HOP-92 NSCLC = test system: HOP-92 NSCLC
SW-620 colon = test system: SW-620 colon
K-562 leukemia = test system: K-562 leukemia
SN12C renal = test system: SN12C renal
SNB-19 CNS = test system: SNB-19 CNS
SNB-75 CNS = test system: SNB-75 CNS
CCRF-CEM leukemia = test system: CCRF-CEM leukemia
RPMI-8226 leukemia = test system: RPMI-8226 leukemia
MDA-MB-435 = test system: MDA-MB-435
HCT-116 colon = test system: HCT-116 colon
SF-295 CNS = test system: SF-295 CNS
PC-3 prostate = test system: PC-3 prostate
U251 CNS = test system: U251 CNS
NCI-H522 lung = test system: NCI-H522 lung
LOX IMVI melanoma = test system: LOX IMVI melanoma
NCI-H23 lung = test system: NCI-H23 lung
SK-OV-3 ovarian = test system: SK-OV-3 ovarian
RXF 393 renal = test system: RXF 393 renal
COLO 205 colon = test system: COLO 205 colon
T-47D breast = test system: T-47D breast
MALME-3M melanoma = test system: MALME-3M melanoma
OVCAR-4 ovarian = test system: OVCAR-4 ovarian
OVCAR-5 ovarian = test system: OVCAR-5 ovarian
SK-MEL-28 melanoma = test system: SK-MEL-28 melanoma
786-0 renal = test system: 786-0 renal
HOP-62 NSCLC = test system: HOP-62 NSCLC
NCI-H460 lung = test system: NCI-H460 lung
OVCAR-8 ovarian = test system: OVCAR-8 ovarian
UO-31 renal = test system: UO-31 renal
HS 578T breast = test system: HS 578T breast
ACHN renal = test system: ACHN renal
SK-MEL-2 melanoma = test system: SK-MEL-2 melanoma
HCC-2998 colon = test system: HCC-2998 colon
HT29 colon = test system: HT29 colon
CAKI-1 renal = test system: CAKI-1 renal
EKVX NSCLC = test system: EKVX NSCLC
HCT-15 colon = test system: HCT-15 colon
MDA-N = test system: MDA-N
DU-145 prostate = test system: DU-145 prostate
MOLT-4 leukemia = test system: MOLT-4 leukemia
KM12 colon = test system: KM12 colon
MCF7 breast = test system: MCF7 breast
NCI-H226 lung = test system: NCI-H226 lung
HL-60(TB) leukemia = test system: HL-60(TB) leukemia
NCI/ADR-RES ovarian = test system: NCI/ADR-RES ovarian
MDA-MB-231 breast = test system: MDA-MB-231 breast
OVCAR-3 ovarian = test system: OVCAR-3 ovarian
IGROV1 ovarian = test system: IGROV1 ovarian
SK-MEL-5 melanoma = test system: SK-MEL-5 melanoma
TK-10 renal = test system: TK-10 renal
SF-539 CNS = test system: SF-539 CNS
A498 renal = test system: A498 renal
M14 melanoma = test system: M14 melanoma
SR leukemia = test system: SR leukemia
UACC-62 melanoma = test system: UACC-62 melanoma
A549 NSCLC = test system: A549 NSCLC

Measured: TGI

OC1c2ccccc2CCC1C(O)(C(F)(F)F)C(F)(F)F (configuration not stated)
> 100 µM: all assays above
